Data taken from patent US20040086942A1, “Ige receptor antagonists” (priority 2003, published 2004).
Where a SMILES comes first, the peptide text is derived from it. Bridges are numbered along the chain shown (N, C = ends). [ ]: non-standard residue; d: D form. 2Nal = N[C@@H](Cc1ccc2ccccc2c1)C(=O)O; Pip = O=C(O)[C@@H]1CCCCN1; NMeA = CN[C@@H](C)C(=O)O; Sar = CNCC(=O)O

Legend:
[1] = 2D NMR structural score versus reference peptide; format: physicochemical; set-up: key to Struct. Score: +++ indicates the peptide is structured similarly to IGE063 (SEQ ID NO:49); + indicates the peptide is structured similarly to IGE063 (SEQ ID NO:49), but is less stable; −/+ indicates the peptide has some elements of stable structure, but the conformation differs from the reference structure (e.g., a different turn type is evident); − indicates the peptide is predominantly unstructured in aqueous solution; conditions: reference IGE063
Experimental: Peptides were evaluated by 2D NMR spectroscopy to assess the effect of substitutions on the three-dimensional structure of the peptide analog. All peptides with a structural score indicated in Table 5 were analyzed by 2D NMR spectroscopy; backbone ^1H resonances were assigned and ^3JHN-Hα coupling constants were measured and compared to the reference peptide (IGE063, SEQ ID NO:49; see Example 5). Peptides are defined to be of similar structure to the reference peptide provided chemical shifts, coupling constants, and NOEs are consistent with that structure.
A structural score was assigned to peptides analyzed by 2D NMR spectroscopy. For each of these peptides, backbone ^1H resonances have been assigned, and the ^3JHN-Ha coupling constants have been measured and compared to the reference peptide (i.e., IGE134 (SEQ ID NOS:155, 171)). Peptides are defined to be of similar structure to the reference peptide provided. chemical shifts, coupling constants, and NOEs are consistent with that structure.

[2] = molecular target: T1, alpha subunit of the human FcεRI receptor (Homo sapiens, UniProt P12319); test: cell-based 125I-IgE binding inhibition assay on CHO FcεRI+ cells
T1 construct: expressed in transfected cells; host or cells: Chinese hamster ovary (CHO FcεRI+) cells
T1 sequence (P12319 26-257): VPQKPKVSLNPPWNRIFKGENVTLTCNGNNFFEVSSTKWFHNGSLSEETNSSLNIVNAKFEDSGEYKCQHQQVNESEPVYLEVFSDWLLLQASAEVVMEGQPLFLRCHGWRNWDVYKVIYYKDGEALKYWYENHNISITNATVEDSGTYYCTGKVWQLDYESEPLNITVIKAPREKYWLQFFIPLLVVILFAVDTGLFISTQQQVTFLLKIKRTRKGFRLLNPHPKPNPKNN
Experimental: . The following day the cells were rinsed three times with PBS and then once with F12/DMEM. Peptide stocks were reconstituted in 100 mM Hepes buffered water, pH 7.2, at a concentration of 5 mg/mL. Working concentrations of the peptide were diluted in assay buffer (see below). 75 ul, of a desired concentration of peptide was added to the top row of a separate 96 well microtiter plate and serially diluted 1:3 in 50 uL of the assay buffer (F12/DMEM, 1% BSA, 0.05% NaN3 and […] Hepes pH 7.2). Starting concentrations ranged from 50-500 uM. Next, 50 uL of the diluted peptide was transferred to the 96 microtiter well plate containing a monolayer of CHO FcεRI+ cells. After a 1 hour incubation at room temperature, 50 uL of ^125I-IgE (1.5 nM) was added to each well and incubated for an additional 45-60 minutes at 4° C. followed by 5 washes with 200 uL of assay buffer. Cells were solubilized with 200 uL of 1 N NaOH and transferred to a 96 microtiter tube for counting in a gamma counter to determine counts bound. The data were plotted using KaleidaGraph 3.0 and fitted using 4-parameter fits. IC50 values were determined for each peptide.
Six peptides based on selected clones from library #516 were synthesized and assayed for the ability to inhibit the binding of ^125I-IgE to a Chinese hamster ovary cell line expressing the alpha subunit of the IgE high affinity receptor, FcεRI. The peptides were synthesized as nine residue monomers and oxidized to allow the formation of a disulfide bridge resulting in a cyclic peptide. The size of each peptide was confirmed by mass spectrometry.

SMILES	Struct. Score [1]	also measured
CSCC[C@H](NC(=O)[C@@H]1CSSC[C@H](NC(=O)[C@H](CCCNC(=N)N)NC(=O)[C@@H]2CCCN2C(=O)[C@H](CC(C)C)NC(=O)[C@H](CC(N)=O)NC(C)=O)C(=O)N[C@@H]([C@@H](C)O)C(=O)N[C@@H](CCC(=O)O)C(=O)NCC(=O)N2CCC[C@H]2C(=O)N[C@@H](CCCCN)C(=O)NCC(=O)N[C@@H](Cc2c[nH]c3ccccc23)C(=O)N[C@@H](C(C)C)C(=O)N1)C(=O)N[C@@H](C)C(=O)N[C@@H](CC(=O)O)C(=O)N[C@@H](CC(=O)O)C(N)=O [IGE032, Ac-NLPRCTEGPKGWVCMADD-nh2] (Ac-NLPRCTEGPKGWVCMADD-NH2; disulfide 5-14)	+++	
CSCC[C@H](NC(=O)[C@@H]1CSSC[C@H](NC(=O)[C@H](CCCNC(=N)N)NC(=O)[C@@H]2CCCN2C(=O)[C@H](CC(C)C)NC(=O)[C@@H](N)CC(N)=O)C(=O)N[C@@H]([C@@H](C)O)C(=O)N[C@@H](CCC(=O)O)C(=O)NCC(=O)N2CCC[C@@H]2C(=O)N[C@@H](Cc2c[nH]c3ccccc23)C(=O)NCC(=O)N[C@@H](Cc2c[nH]c3ccccc23)C(=O)N[C@@H](C(C)C)C(=O)N1)C(=O)O [IGE071, NLPRCTEGpWGWVCM] (H-NLPRCTEG[dP]WGWVCM-OH; disulfide 5-14; N-terminus and C-terminus assumed)	−/+	
CSCC[C@H](NC(=O)[C@@H]1CSSC[C@H](NC(=O)[C@H](CCCNC(=N)N)NC(=O)[C@@H]2CCCN2C(=O)[C@H](CC(C)C)NC(=O)[C@@H](N)CC(N)=O)C(=O)N[C@@H]([C@@H](C)O)C(=O)N[C@@H](CCC(=O)O)C(=O)NCC(=O)N2CCC[C@H]2C(=O)N[C@@H](C)C(=O)NCC(=O)N[C@@H](Cc2c[nH]c3ccccc23)C(=O)N[C@@H](C(C)C)C(=O)N1)C(=O)O [IGE072, NLPRCTEGPAGWVCM] (H-NLPRCTEGPAGWVCM-OH; disulfide 5-14; N-terminus and C-terminus assumed)	+++	
CSCC[C@H](NC(=O)[C@@H]1CSSC[C@H](NC(=O)[C@H](CCCNC(=N)N)NC(=O)[C@@H]2CCCN2C(=O)[C@H](CC(C)C)NC(=O)[C@@H](N)CC(N)=O)C(=O)N[C@@H]([C@@H](C)O)C(=O)N[C@@H](CCC(=O)O)C(=O)NCC(=O)N2CCC[C@H]2C(=O)N[C@@H](Cc2c[nH]c3ccccc23)C(=O)NCC(=O)N[C@@H](Cc2c[nH]c3ccccc23)C(=O)N[C@@H](Cc2ccc(O)cc2)C(=O)N1)C(=O)O [IGE077, NLPRCTEGPWGWYCM] (H-NLPRCTEGPWGWYCM-OH; disulfide 5-14; N-terminus and C-terminus assumed)	+++	
CC(C)C[C@H](NC(=O)[C@@H](N)CC(N)=O)C(=O)N1CCC[C@H]1C(=O)N[C@@H](CCCNC(=N)N)C(=O)N[C@H]1CSSC[C@@H](C(N)=O)NC(=O)[C@H](C(C)C)NC(=O)[C@H](Cc2c[nH]c3ccccc23)NC(=O)CNC(=O)[C@H](Cc2c[nH]c3ccccc23)NC(=O)[C@@H]2CCCN2C(=O)CNC(=O)[C@H](CCC(=O)O)NC(=O)[C@H]([C@@H](C)O)NC1=O [IGE091, NLPRCTEGPWGWVC-nh2] (H-NLPRCTEGPWGWVC-NH2; disulfide 5-14)	+++	
CSCC[C@H](NC(=O)[C@@H]1CSSC[C@H](NC(=O)[C@H](CCCNC(=N)N)NC(=O)[C@@H]2CCCN2C(=O)[C@H](CC(C)C)NC(=O)[C@H](CC(N)=O)NC(C)=O)C(=O)N[C@@H]([C@@H](C)O)C(=O)N[C@@H](CCC(=O)O)C(=O)NCC(=O)N2CCCC[C@H]2C(=O)N[C@@H](Cc2c[nH]c3ccccc23)C(=O)NCC(=O)N[C@@H](Cc2c[nH]c3ccccc23)C(=O)N[C@@H](C(C)C)C(=O)N1)C(=O)O [IGE095, Ac-NLPRCTEG(Pip)WGWVCM] (Ac-NLPRCTEG[Pip]WGWVCM-OH; disulfide 5-14; C-terminus assumed)	+++	
CSCC[C@H](NC(=O)[C@@H]1CSSC[C@H](NC(=O)[C@H](CCCNC(=N)N)NC(=O)[C@@H]2CCCN2C(=O)[C@H](CC(C)C)NC(=O)[C@H](CC(N)=O)NC(C)=O)C(=O)N[C@@H]([C@@H](C)O)C(=O)N[C@@H](CCC(=O)O)C(=O)NCC(=O)N(C)[C@@H](C)C(=O)N[C@@H](Cc2c[nH]c3ccccc23)C(=O)NCC(=O)N[C@@H](Cc2c[nH]c3ccccc23)C(=O)N[C@@H](C(C)C)C(=O)N1)C(=O)O [IGE096, Ac-NLPRCTEG(N-Me-A)WGWVCM] (Ac-NLPRCTEG[NMeA]WGWVCM-OH; disulfide 5-14; C-terminus assumed)	+++	
CSCC[C@H](NC(=O)[C@@H]1CSSC[C@H](NC(=O)[C@H](CCCNC(=N)N)NC(=O)[C@@H]2CCCN2C(=O)[C@H](CC(C)C)NC(=O)[C@H](CC(N)=O)NC(C)=O)C(=O)N[C@@H]([C@@H](C)O)C(=O)N[C@@H](CCC(=O)O)C(=O)NCC(=O)N(C)CC(=O)N[C@@H](Cc2c[nH]c3ccccc23)C(=O)NCC(=O)N[C@@H](Cc2c[nH]c3ccccc23)C(=O)N[C@@H](C(C)C)C(=O)N1)C(=O)O [IGE097, Ac-NLPRCTEG(N-Me-G)WGWVCM] (Ac-NLPRCTEG[Sar]WGWVCM-OH; disulfide 5-14; C-terminus assumed)	−/+	
CSCC[C@H](NC(=O)[C@@H]1CSSC[C@H](NC(=O)[C@H](CCCNC(=N)N)NC(=O)[C@@H]2CCCN2C(=O)[C@H](CC(C)C)NC(=O)[C@H](CC(N)=O)NC(C)=O)C(=O)N[C@@H]([C@@H](C)O)C(=O)N[C@@H](CCC(=O)O)C(=O)NCC(=O)N2CCC[C@H]2C(=O)N[C@@H](Cc2ccc3ccccc3c2)C(=O)NCC(=O)N[C@@H](Cc2c[nH]c3ccccc23)C(=O)N[C@@H](C(C)C)C(=O)N1)C(=O)O [IGE103, Ac-NLPRCTEGP(npA)GWVCM] (Ac-NLPRCTEGP[2Nal]GWVCM-OH; disulfide 5-14; C-terminus assumed)	+++	
CSCC[C@H](NC(=O)[C@H]1CSSC[C@H](NC(=O)[C@H](CCCNC(=N)N)NC(=O)[C@@H]2CCCN2C(=O)[C@H](CC(C)C)NC(=O)[C@H](CC(N)=O)NC(C)=O)C(=O)N[C@@H]([C@@H](C)O)C(=O)N[C@@H](CCC(=O)O)C(=O)NCC(=O)N2CCC[C@H]2C(=O)N[C@@H](Cc2c[nH]c3ccccc23)C(=O)NCC(=O)N[C@@H](Cc2c[nH]c3ccccc23)C(=O)N[C@@H](C(C)C)C(=O)N1)C(=O)O [IGE104, Ac-NLPRCTEGPWGWVcM] (Ac-NLPRCTEGPWGWV[dC]M-OH; disulfide 5-14; C-terminus assumed)	−	
CC[C@H](C)[C@H](NC(=O)[C@@H]1CSSC[C@H](NC(=O)[C@H](CC(C)C)NC(=O)[C@@H](NC(=O)CNC(=O)[C@@H](N)CCSC)[C@@H](C)O)C(=O)N[C@@H](CC(C)C)C(=O)N[C@@H](CCC(=O)O)C(=O)NCC(=O)N2CCC[C@H]2C(=O)N[C@@H](CCC(=O)O)C(=O)NCC(=O)N[C@@H](Cc2c[nH]c3ccccc23)C(=O)N[C@@H](Cc2ccccc2)C(=O)N1)C(=O)N[C@@H](CCC(=O)O)C(=O)N[C@@H](CO)C(=O)N[C@@H](C)C(=O)O [MGTLCLEGPEGWFCIESA] (H-MGTLCLEGPEGWFCIESA-OH; disulfide 5-14)		IC50 ([2]; IGE037: initially, read-out: IC50): > 160 µM
CSCC[C@H](NC(=O)[C@@H]1CSSC[C@H](NC(=O)[C@H](CCCNC(=N)N)NC(=O)[C@@H]2CCCN2C(=O)[C@H](CC(C)C)NC(=O)[C@@H](N)CC(N)=O)C(=O)N[C@@H]([C@@H](C)O)C(=O)N[C@@H](CCC(=O)O)C(=O)NCC(=O)N2CCC[C@H]2C(=O)N[C@@H](Cc2c[nH]c3ccccc23)C(=O)NCC(=O)N[C@@H](Cc2c[nH]c3ccccc23)C(=O)N[C@@H](C(C)C)C(=O)N1)C(=O)N[C@@H](C)C(=O)N[C@@H](C)C(=O)N[C@@H](CC(=O)O)C(=O)O [NLPRCTEGPWGWVCMAAD] (H-NLPRCTEGPWGWVCMAAD-OH; disulfide 5-14; N-terminus and C-terminus assumed)		fold improvement over the EIQECTEGPWGWFCVGSG peptide [2]: 40 fold; fold improvement over the MGTLCLEGPEGWFCIESA peptide [2]: greater than 160 fold
